Test results taken from patent US12180192B2, “Modulators of THR-β and methods of use thereof” (ALIGOS THERAPEUTICS, INC., priority 2019, dated 2024).
pEC50: −log10 of the molar value.

Experiments:
[1] = molecular target: T1, human thyroid receptor alpha ligand-binding domain (LBD) (Homo sapiens, UniProt P10827); assay: TR-FRET thyroid receptor alpha coactivator assay (THR biochemical assay, Assay 1); details: for pEC50: Table 4, THR-alpha, read-out: Activity category Assay 1 (EC50, THR-alpha agonist activity); for Emax / Activity category Assay 1 THRα (Emax): Table 5, THRα; for Emax: read-out: Activity category Assay 1 THRα (Emax)
T1 construct: purchased Invitrogen
Method in brief: (§1)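 GST-tagged human TRβ or TRα LBD, 1 nM final (stated for β), with fluorescein-SRC2-2 coactivator peptide (200 nM) and Tb-anti-GST antibody (2 nM). Agonists serially diluted, 1% DMSO final. 1 h incubation at rt in the dark; TR-FRET read as rise in fluorescein and drop in terbium emission.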

[2] = molecular target: T2, human thyroid receptor beta ligand-binding domain (LBD) (Homo sapiens, UniProt P10828); assay: TR-FRET thyroid receptor beta coactivator assay (THR biochemical assay, Assay 1); details: for pEC50: THR-beta, TR-FRET coactivator assay, read-out: Activity category Assay 1 (EC50, THR-beta agonist); for Emax / Activity category Assay 1 THRβ (Emax): Table 5, Assay 1, THRβ; for Emax: read-out: Activity category Assay 1 THRβ (Emax)
T2 construct: purchased Invitrogen
T2 sequence (P10828 217-461 limits assumed): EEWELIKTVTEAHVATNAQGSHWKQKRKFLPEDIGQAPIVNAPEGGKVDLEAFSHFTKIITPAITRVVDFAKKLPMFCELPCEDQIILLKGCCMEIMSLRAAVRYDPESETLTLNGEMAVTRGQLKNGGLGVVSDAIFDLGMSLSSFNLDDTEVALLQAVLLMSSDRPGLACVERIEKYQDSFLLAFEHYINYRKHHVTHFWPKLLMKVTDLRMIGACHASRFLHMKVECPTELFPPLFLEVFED
Method in brief: as §1

T1 sequence (P10827 163-410 isoform P10827-2 limits assumed, other chains not shown): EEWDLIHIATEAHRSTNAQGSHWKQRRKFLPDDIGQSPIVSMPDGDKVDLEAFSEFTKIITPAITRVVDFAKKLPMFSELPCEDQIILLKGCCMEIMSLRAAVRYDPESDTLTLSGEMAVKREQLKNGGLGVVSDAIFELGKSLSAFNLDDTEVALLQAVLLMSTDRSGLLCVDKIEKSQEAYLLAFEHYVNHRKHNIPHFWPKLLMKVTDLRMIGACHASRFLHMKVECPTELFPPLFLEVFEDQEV

| SMILES | pEC50 [1] | Emax [1] [%] | pEC50 [2] | Emax [2] [%] | Activity category Assay 1 THRα (Emax) [1] | Activity category Assay 1 THRβ (Emax) [2] |
| --- | --- | --- | --- | --- | --- | --- |
| Nc1nn(-c2cc(Cl)c(Oc3n[nH]c(=O)cc3-c3ccc4c(c3)CCCO4)c(Cl)c2)c(=O)[nH]c1=O [Compound 115] | < 4.60 | < 50 | 6.60 to 7.30 | < 50 | – | – |
| CC(C)c1cc(Oc2c(Cl)cc(-c3nn(C)c(=O)[nH]c3=O)cc2Cl)n[nH]c1=O [Compound 16, 6-[3,5-dichloro-4-[(5-isopropyl-6-oxo-1H-pyridazin-3-yl)oxy]phenyl]-2-methyl-4H-1,2,4-triazine-3,5-dione] | 6.00 to 6.60 | < 50 | 6.60 to 7.30 | 50 to 75 | – | – |
| C[C@H]1C[C@H](c2cc(Oc3c(Cl)cc(-n4nc(N)c(=O)[nH]c4=O)cc3Cl)n[nH]c2=O)C1 (single isomer, unassigned) [Compound 86-A, 6-Amino-2-(3,5-dichloro-4-((5-((1r,3r)-3-methylcyclobutyl)-6-oxo-1,6-dihydropyridazin-3-yl)oxy)phenyl)-1,2,4-triazine-3,5(2H,4H)-dione] | 6.00 to 6.60 | < 50 | 6.60 to 7.30 | < 50 | – | – |
| Nc1nn(-c2cc(Cl)c(Oc3cc(C45CCC(C4)C5)c(=O)[nH]n3)c(Cl)c2)c(=O)[nH]c1=O [Compound 101] | 6.00 to 6.60 | < 50 | 6.60 to 7.30 | < 50 | – | – |
| CCC(C)c1cc(Oc2c(Cl)cc(-n3nc(N)c(=O)[nH]c3=O)cc2Cl)n[nH]c1=O (stereo not drawn) [Compound 39-B] | 6.60 to 7.30 | – | > 7.30 | – | B (Emax≥50%, and <75%) | B (Emax≥50%, and <75%) |
| CCC(C)c1cc(Oc2c(Cl)cc(-n3nc(N)c(=O)[nH]c3=O)cc2Cl)n[nH]c1=O (stereo not drawn) [Compound 39-A] | 6.00 to 6.60 | – | > 7.30 | – | B (Emax≥50%, and <75%) | C (Emax<50%) |
| Nc1nn(-c2cc(Cl)c(Oc3cc(-c4ccc5c(c4)CCCO5)c(=O)[nH]n3)c(Cl)c2)c(=O)[nH]c1=O [Compound 114] | < 4.60 | < 50 | 6.60 to 7.30 | < 50 | – | – |
| Nc1nn(-c2cc(Cl)c(Oc3n[nH]c(=O)cc3-c3ccc4ccccc4c3)c(Cl)c2)c(=O)[nH]c1=O [Compound 67-A, 6-amino-2-(3,5-dichloro-4-((4-(naphthalen-2-yl)-6-oxo-1,6-dihydropyridazin-3-yl)oxy)phenyl)-1,2,4-triazine-3,5(2H,4H)-dione] | < 4.60 | < 50 | > 7.30 | < 50 | – | – |
| CC(c1cc(Oc2c(Cl)cc(-n3nc(N)c(=O)[nH]c3=O)cc2Cl)n[nH]c1=O)C1CC(F)(F)C1 (single isomer, unassigned) [Compound 61-A, 6-amino-2-[3,5-dichloro-4-([5-[1-(3,3-difluorocyclobutyl)ethyl]-6-oxo-1H-pyridazin-3-yl]oxy)phenyl]-4H-1,2,4-tri-azine-3,5-dione] | 6.60 to 7.30 | 50 to 75 | > 7.30 | 50 to 75 | – | – |
| CC(C)c1cc(=O)[nH]c2ccc(Oc3c(Cl)cc(-n4nc(N)c(=O)[nH]c4=O)cc3Cl)cc12 [Compound 146, 6-amino-2-[3,5-dichloro-4-[(4-isopropyl-2-oxo-1H-quinolin-6-yl)oxy]phenyl]-1,2,4-triazine-3,5-dione] | 6.60 to 7.30 | < 50 | > 7.30 | < 50 | – | – |
| Nc1nn(-c2cc(Cl)c(Oc3cc(-c4ccc5ccccc5c4)c(=O)[nH]n3)c(Cl)c2)c(=O)[nH]c1=O [Compound 67, 6-amino-2-(3,5-dichloro-4-[[5-(naphthalen-2-yl)-6-oxo-1H-pyridazin-3-yl]oxy]phenyl)-4H-1,2,4-triazine-3,5-dione] | 4.60 to 6.00 | < 50 | 6.60 to 7.30 | < 50 | – | – |
| Nc1nn(-c2cc(Cl)c(Oc3cc(C4CCC4)c(=O)[nH]n3)c(Cl)c2)c(=O)[nH]c1=O [Compound 40, 6-amino-2-[3,5-dichloro-4-[(5-cyclobutyl-6-oxo-1H-pyridazin-3-yl)oxy]phenyl]-4H-1,2,4-triazine-3,5-dione] | 6.60 to 7.30 | 50 to 75 | > 7.30 | 50 to 75 | – | – |
| CC(c1cc(Oc2c(Cl)cc(-n3nc(N)c(=O)[nH]c3=O)cc2Cl)n[nH]c1=O)C1CC(F)(F)C1 (single isomer, unassigned) [Compound 61-B, 6-amino-2-[3,5-dichloro-4-([5-[1-(3,3-difluorocyclobutyl)ethyl]-6-oxo-1H-pyridazin-3-yl]oxy)phenyl]-4H-1,2,4-tri-azine-3,5-dione] | 4.60 to 6.00 | – | 6.60 to 7.30 | – | C (Emax<50%) | C (Emax<50%) |
| Nc1nn(-c2cc(Cl)c(Oc3cc(-c4ccc5c(c4)CCCC5)c(=O)[nH]n3)c(Cl)c2)c(=O)[nH]c1=O [Compound 72, 6-Amino-2-(3,5-dichloro-4-((6-oxo-5-(5,6,7,8-tetrahydro-naphthalen-2-yl)-1,6-dihydro-pyridazin-3-yl)oxy)phenyl)-1,2,4-triazine-3,5(2H,4H)-dione] | < 4.60 | < 50 | 6.60 to 7.30 | < 50 | – | – |

The next lines start with the values.

| pEC50 [1] | Emax [1] [%] | pEC50 [2] | Emax [2] [%] | Activity category Assay 1 THRα (Emax) [1] | Activity category Assay 1 THRβ (Emax) [2] | SMILES |
| --- | --- | --- | --- | --- | --- | --- |
| > 7.30 | > 75 | > 7.30 | 50 to 75 | – | – | Cc1cc(-n2nc(N)c(=O)[nH]c2=O)cc(C)c1Cc1ccc2c(c1)C1(CC1)C(=O)N2 [Compound 151, 6-Amino-2-(3,5-dimethyl-4-((2′-oxospiro[cyclopropane-1,3′-indolin]-5′-yl)methyl)phenyl)-1,2,4-triazine-3,5(2H,4H)-dione] |
| > 7.30 | 50 to 75 | > 7.30 | < 50 | – | – | Cc1cc(-n2nc(C#N)c(=O)[nH]c2=O)cc(C)c1Cc1ccc2c(c1)C1(CC1)C(=O)N2 [Compound 148, 2-(3,5-dimethyl-4-((2′-oxospiro[cyclopropane-1,3′-indolin]-5′-yl)methyl)phenyl)-3,5-dioxo-2,3,4,5-tetrahydro-1,2,4-triazine-6-carbonitrile] |
| 6.60 to 7.30 | < 50 | > 7.30 | < 50 | – | – | Cc1cc(-n2nc(C#N)c(=O)[nH]c2=O)cc(C)c1Cc1ccc2[nH]c(=O)cc(C(C)C)c2c1 [Compound 90, 2-(4-((4-Isopropyl-2-oxo-1,2-dihydroquinolin-6-yl)methyl)-3,5-dimethylphenyl)-3,5-dioxo-2,3,4,5-tetrahydro-1,2,4-triazine-6-carbonitrile] |
| 6.00 to 6.60 | 50 to 75 | > 7.30 | > 75 | – | – | Cc1cc(-n2nc(N)c(=O)[nH]c2=O)cc(C)c1Cc1cc2c(C(C)C)c[nH]c2cn1 [Compound 157, 6-amino-2-[4-[(3-isopropyl-1H-pyrrolo[2,3-c]pyridin-5-yl)methyl]-3,5-dimethyl-phenyl]-1,2,4-triazine-3,5-dione] |
| 6.60 to 7.30 | < 50 | > 7.30 | 50 to 75 | – | – | CC(C)c1n[nH]c2nnc(Oc3c(Cl)cc(-n4nc(C#N)c(=O)[nH]c4=O)cc3Cl)cc12 [Compound 75A, 2-(3,5-Dichloro-4-((3-isopropyl-1H-pyrazolo[3,4-c]pyridazin-5-yl)oxy)phenyl)-3,5-dioxo-2,3,4,5-tetrahydro-1,2,4-triazine-6-carbonitrile] |
| > 7.30 | 50 to 75 | > 7.30 | 50 to 75 | – | – | Nc1nn(-c2cc(Cl)c(Oc3ccc4c(c3)C3(CCCC3)C(=O)N4)c(Cl)c2)c(=O)[nH]c1=O [Compound 83] |
| > 7.30 | 50 to 75 | > 7.30 | < 50 | – | – | CC(C)Nc1n[nH]c2ccc(Oc3c(Cl)cc(-n4nc(C#N)c(=O)[nH]c4=O)cc3Cl)cc12 [Compound 145, 2-(3,5-dichloro-4-((3-(isopropylamino)-1H-indazol-5-yl)oxy)phenyl)-3,5-dioxo-2,3,4,5-tetrahydro-1,2,4-triazine-6-carbonitrile] |
| 4.60 to 6.00 | < 50 | 6.60 to 7.30 | < 50 | – | – | CC(C)c1c[nH]c2nnc(Oc3c(Cl)cc(-n4nc(C#N)c(=O)[nH]c4=O)cc3Cl)cc12 [Compound 52, 2-[3,5-dichloro-4-([5-isopropyl-7H-pyrrolo[2,3-c]pyridazin-3-yl]oxy)phenyl]-3,5-dioxo-4H-1,2,4-triazine-6-carbonitrile] |
| > 7.30 | < 50 | > 7.30 | 50 to 75 | – | – | Cc1cc(-n2ncc(=O)[nH]c2=O)cc(C)c1Cc1ccc2[nH]cc(C(C)C)c2n1 [Compound 54, 2-[4-[(3-isopropyl-1H-pyrrolo[3,2-b]pyridine-5-yl)methyl]-3,5-dimethyl-phenyl]-1,2,4-triazine-3,5-dione] |
| > 7.30 | 50 to 75 | > 7.30 | 50 to 75 | – | – | Cc1cc(-n2nc(N)c(=O)[nH]c2=O)cc(C)c1Cc1ccc2[nH]cc(C(C)C)c2n1 [Compound 55, 6-amino-2-[4-[(3-isopropyl-1H-pyrrolo[3,2-b]pyridin-5-yl)methyl]-3,5-dimethyl-phenyl]-1,2,4-triazine-3,5-dione] |
